Measured values published in patent US20180370912A1, “COMPOUNDS AND METHODS FOR TREATING DISEASES MEDIATED BY PROTEIN DISULFIDE ISOMERASE” (Beth Israel Deaconess Medical Center, Inc., priority 2017, published 2018).

How the values were obtained:
PDI [1] = molecular target: T1, PDI (Homo sapiens, UniProt P07237); assay: Insulin reductase (turbidimetric) assay; type: biochemical; conditions: for selectivity for PDI among thiol isomerases: versus ERp5, ERp57, thioredoxin, concentrations 10-fold higher than IC50
T1 construct: FLAG; made in house; host or cells: Escherichia coli Origami B (DE3), pET-15b
Protocol: (§1) The thiol isomerase-catalyzed reduction of insulin was assayed by measuring the increase in turbidity as detected at an optical density (OD) of 650 nm using a Spectramax M3 (Molecular Devices, Sunnyvale, Calif.). The validation assay consisted of 175 nM of PDI in a solution containing 100 mM potassium phosphate (pH 7.4) containing 0.2 mM bovine insulin, 2 mM EDTA, and 0.3 mM DTT (all purchased from Sigma Aldrich, St. Louis, Mo.), inhibitors were used at the concentrations indicated. The reaction was performed at 25° C. for one hour and thirty minutes. For assays of thiol isomerase selectivity, 11 nM PDI, ERp57 or Thioredoxin, or 33 nM ERpS were assayed in similar buffer conditions as described above and inhibitors were used at the indicated concentration. The reaction was performed at 37° C. for forty-five minutes. For assays of isolated domains studies, 400 nM protein was used, except for a, a′ and ab, in which 800 nM protein was used. The assay was performed in similar buffer conditions as described above. Bepristat 2a and N-(2,4-Dimethoxyphenyl)-N-(1-oxo-2-propyn-1-yl)-2-(2-thienyl)glycyl-glycine ethyl ester (PACMA-31) were used at a final concentration of 15 μM in these studies.
Reversibility studies were performed by incubating 20 μM PDI with 6 μM of bepristat 2a or 300 μM of PACMA-31. After 30 minute equilibration; the PDI-inhibitor mixture was diluted 100 fold into the above mentioned assay buffer. The reductase activity of these mixtures were compared to PDI in the presence or absence of 6 μM bepristat 2a or 0.06 μM bepristat 2a or 300 μM PACMA-31 or 3 μM PACMA-31.

PDI [2] = molecular target: T1, PDI; assay: Di-eosin-GSSG disulfide reductase assay; type: biochemical
Protocol: The probe di-eosin glutathione disulfide, di-eosin-GSSG, was prepared as previously described in Raturi, A., Vacratsis, P. O., Seslija, D., Lee, L. & Mutus, B., Biochem J 391, 351-357 (2005). Reductase activity of purified thiol isomerases and PDI domains was monitored in a 96-well fluorescence plate format. PDI, AGHA-PDI, ERpS, ERp57, ERp72 and PDI domains were assayed at 50 nM in the presence or absence of the indicated small molecules, peptides or cathepsin G. The assay included 100 mM potassium phosphate (pH 7.4) containing 2 mM EDTA, 5 μM DTT and 150 nM of the di-eosin GSSG probe. The increase in fluorescence was determined for 20 minutes by excitation at 520 nm and emission at 550 nm in a Synergy Biotek 4. The reduction of 150 nM di-eosin-GSSG by 5 μM DTT in the presence or absence of mentioned small molecules, peptides or proteins served as a negative control.
Michaelis Menten analysis was assayed using PDI at 20 nM and small molecules, peptides or cathepsin G at concentrations causing maximal augmentation under similar buffer conditions as described above. 8-point response curves were generated using a range of different di-eosin-GSSG concentrations (50-5000 nM). Enzyme kinetics analysis was performed using Graphpad Prism 5.0.

Washed human platelets = assay: Platelet aggregation, light transmission aggregometry; type: cell-based; conditions: for inhibition of SFLLRN-induced platelet aggregation: 30 μM, 3 μM SFLLRN, FIG. 2d; for reversibility of inhibition of platelet aggregation after washing: platelets incubated with antagonist, washed, then stimulated with SFLLRN
Protocol: Platelet aggregation was performed as previously described in Jasuja, R. et al., J Clin Invest 122, 2104-2113 (2012). Briefly, platelet rich plasma (PRP) was obtained from healthy volunteers. Platelets were isolated by centrifugation at 2,000 g and resuspended in Hepes-Tyrode buffer (134 mM […], 2.9 mM KCl, 12 mM sodium bicarbonate, 20 mM HEPES, 1 mM magnesium chloride, 5 mM glucose [pH 7.3]). Washed human platelets (2.5×10^8 platelets/mL) were incubated with the indicated concentrations of bepristats and PACMA-31 at 37° C. for 20 minutes and then exposed to 3 μM PAR-1 activating peptide SFLLRN. Aggregation was measured using a Chrono-Log 680 Aggregation System.

[3] = molecular target: T2, PDI domain fragments (a, a′, ab, abb′, b′xa′) (Homo sapiens, UniProt P07237); assay: Insulin reductase assay of isolated PDI domains; type: biochemical; conditions: FIG. 4a
T2 construct: a (residues 1-117), a′ (residues 342-462), ab (residues 1-218), abb′ (residues 1-331), or b′xa′ (residues 219-462); His; made in house; host or cells: Escherichia coli Origami B (DE3), pET-15b
Protocol: as §1

[4] = molecular target: T3, PDI domain fragments (a, a′, ab, abb′, b′xa′) (Homo sapiens, UniProt P07237); assay: Insulin reductase assay of isolated PDI domains; type: biochemical; conditions: FIG. 4a; remark: listed apart in the source
T3 construct: a (residues 1-117), a′ (residues 342-462), ab (residues 1-218), abb′ (residues 1-331), or b′xa′ (residues 219-462); His; made in house; host or cells: Escherichia coli Origami B (DE3), pET-15b
T3 sequence (P07237 18-235): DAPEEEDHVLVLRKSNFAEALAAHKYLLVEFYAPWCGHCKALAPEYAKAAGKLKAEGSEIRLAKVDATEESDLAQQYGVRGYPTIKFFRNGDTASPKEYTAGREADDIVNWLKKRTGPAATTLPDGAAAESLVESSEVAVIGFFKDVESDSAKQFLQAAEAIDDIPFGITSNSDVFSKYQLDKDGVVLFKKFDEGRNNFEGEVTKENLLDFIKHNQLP
Protocol: as §1

[5] = molecular target: T4, PDI domain fragments (a, a′, ab, abb′, b′xa′) (Homo sapiens, UniProt P07237); assay: Insulin reductase assay of isolated PDI domains; type: biochemical; conditions: FIG. 4a; remark: listed apart in the source
T4 construct: a (residues 1-117), a′ (residues 342-462), ab (residues 1-218), abb′ (residues 1-331), or b′xa′ (residues 219-462); His; made in house; host or cells: Escherichia coli Origami B (DE3), pET-15b
T4 sequence (P07237 18-348): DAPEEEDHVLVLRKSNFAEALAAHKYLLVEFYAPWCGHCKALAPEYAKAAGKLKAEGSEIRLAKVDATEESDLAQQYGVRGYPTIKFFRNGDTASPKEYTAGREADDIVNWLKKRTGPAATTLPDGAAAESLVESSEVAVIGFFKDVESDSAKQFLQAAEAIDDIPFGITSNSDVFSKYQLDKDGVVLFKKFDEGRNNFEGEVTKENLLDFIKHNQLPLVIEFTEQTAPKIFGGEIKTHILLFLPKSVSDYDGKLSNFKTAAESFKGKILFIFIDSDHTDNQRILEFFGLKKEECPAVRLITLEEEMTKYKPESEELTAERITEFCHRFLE
Protocol: as §1

PDI [6] = molecular target: T1, PDI; assay: ANS fluorescence; type: binding; conditions: 100 μM inhibitor, 50 μM ANS, FIG. 4c
Protocol: The binding of 1-Anilinonaphthalene-8-Sulfonic Acid (ANS) to full length PDI and the different domains of PDI was assessed by incubating 5 μM of protein in the presence or absence of 100 μM of the indicated inhibitors in 175 μL of TBS at 37° C. for 1 hour. Subsequently, 50 μM of ANS was added and the mixture was incubated in the dark at 25° C. for 20 minutes. Fluorescence spectrum (Ex: 370 nm, Em: 400-700 nm) was measured in a 384-well plate. The experiment was performed in triplicate.

T1 sequence (P07237 18-508): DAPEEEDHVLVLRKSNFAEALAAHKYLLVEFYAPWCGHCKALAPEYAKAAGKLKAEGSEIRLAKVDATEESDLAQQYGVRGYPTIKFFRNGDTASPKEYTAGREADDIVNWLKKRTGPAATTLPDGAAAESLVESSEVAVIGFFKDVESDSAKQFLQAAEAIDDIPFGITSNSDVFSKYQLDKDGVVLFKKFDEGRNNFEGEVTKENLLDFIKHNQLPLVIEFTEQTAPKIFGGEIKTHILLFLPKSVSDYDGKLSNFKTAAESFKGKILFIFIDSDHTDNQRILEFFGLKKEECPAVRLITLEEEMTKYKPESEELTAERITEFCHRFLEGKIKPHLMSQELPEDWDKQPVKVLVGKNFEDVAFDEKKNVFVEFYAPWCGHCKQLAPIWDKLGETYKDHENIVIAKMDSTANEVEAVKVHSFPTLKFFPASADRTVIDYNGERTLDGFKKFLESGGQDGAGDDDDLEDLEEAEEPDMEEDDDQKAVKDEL

| SMILES | reversibility of PDI inhibition in the insulin reductase assay (PDI [1]; 100-fold dilution of 6 μM bepristat 2a or 300 μM PACMA-31, FIG. 9) | inhibitory activity in the insulin turbidimetric assay compared with quercetin-3-rutinoside, PACMA-31 and bacitracin (PDI [1]; FIG. 1e) | IC50 (PDI [1]; insulin reductase assay, FIG. 1b) [nM] | selectivity for PDI among thiol isomerases (PDI [1]) | cleavage of di-eosin-GSSG probe by PDI (reductase activity at catalytic cysteines) (PDI [2]) | apparent kcat (PDI [2]; Michaelis-Menten analysis, incubation with compound, 1135 min^−1 without bepristats) [s⁻¹] | fluorescence of di-eosin-GSSG in the absence of PDI (PDI [2]; no PDI) | inhibition of SFLLRN-induced platelet aggregation (Washed human platelets) | reversibility of inhibition of platelet aggregation after washing (Washed human platelets) | insulin reductase activity of b′xa′ domains [3] | insulin reductase activity of isolated a domain [3] | insulin reductase activity of isolated a′ domain [3] | insulin reductase activity of ab domain [4] | insulin reductase activity of abb′ domains [5] | increase in ANS fluorescence upon incubation with PDI (PDI [6]) |
| --- | --- | --- | --- | --- | --- | --- | --- | --- | --- | --- | --- | --- | --- | --- | --- |
| CCOC(=O)c1c(CNCCN(CC)CC)n(-c2ccccc2)c2cc(Br)c(O)cc12 [bepristat 2a] | readily reversed by dilution to a subinhibitory concentration | more potent inhibitory activity | ~1200 | selective among vascular thiol isomerases | enhanced cleavage of the di-eosin-GSSG probe by PDI | 33.25 | did not affect | inhibited platelet aggregation | restored following washing | blocked activity | did not have activity | did not have activity | did not have activity | blocked activity | interfered with the increase in ANS fluorescence |
| C#CC(=O)N(c1ccc(OC)cc1OC)C(C(=O)NCC(=O)OCC)c1cccs1 (stereo not shown) [PACMA-31, N-(2,4-Dimethoxyphenyl)-N-(1-oxo-2-propyn-1-yl)-2-(2-thienyl)glycyl-glycine ethyl ester, reference compound] |  |  |  | not entirely selective for PDI among thiol isomerases | blocked PDI-mediated cleavage of di-eosin-GSSG |  |  | inhibited platelet aggregation | irreversibly inhibited | inhibited reductase activity of all PDI fragments | inhibited reductase activity of all PDI fragments | inhibited reductase activity of all PDI fragments | inhibited reductase activity of all PDI fragments | inhibited reductase activity of all PDI fragments | failed to block ANS fluorescence |
